The data set relates to Spontaneously Hypertensive Rats. As to the kind of experiment: Test 1: antihypertensive effects (systolic tail artery blood pressure) and heart rate in spontaneously hypertensive rats, oral. It is filed as in vivo, rat (male, SHR). The following applies: SHR; for change in vivo at 10 mg/kg / change in vivo at 1 mg/kg: Rattus norvegicus; for Change (%) in heart rate: maximum value. The protocol: The antihypertensive effects of the certain compounds of this invention were studied in the following manner.
Among male, spontaneously hypertensive rats (SHRs) of 20 weeks of age or older and 350-430 g heavy all of which had developed hypertension, those having systolic blood pressures of 180 mmHg or higher were used in groups, each of which was constituted of 3-4 of the rats. […] Besides, heart rates were also measured simultaneously. The compounds were each dissolved or suspended in a 0.5% methylcellulose solution and then administered orally.
*All administered orally at a dosage of 1 mg/Kg except for the compounds
**Each percent change in heart rate is indicated by the corresponding

[1] abbreviates: oral 1 mg/Kg, 1 hour, read-out: Antihypertensive effects, change (%) in blood pressure, 1 hour later.
Where [2] appears, read: oral 1 mg/Kg, 3 hours, read-out: Antihypertensive effects, change (%) in blood pressure, 3 hours later.
Where [3] appears, read: oral 1 mg/Kg, 6 hours, read-out: Antihypertensive effects, change (%) in blood pressure, 6 hours later.
Setting [4] is: oral 1 mg/Kg, 24 hours, read-out: Antihypertensive effects, change (%) in blood pressure, 24 hours later.

Molecules are shown by their SMILES. Read-outs that look alike come from different tables or passages of the source.

As for `CCN(CC)C(=O)c1cnc(N2CCN(c3nc(N)c4cc(OC)c(OC)cc4n3)CC2)nc1N` [Example 65], the change in vivo at 10 mg/kg (oral 10 mg/Kg, 1 hour, read-out: Antihypertensive effects, change (%) in blood pressure, 1 hour later) is -4.9%; the change in vivo at 10 mg/kg (oral 10 mg/Kg, 3 hours, read-out: Antihypertensive effects, change (%) in blood pressure, 3 hours later) is -18.4%; the change in vivo at 10 mg/kg (oral 10 mg/Kg, 6 hours, read-out: Antihypertensive effects, change (%) in blood pressure, 6 hours later) was -21.4%; the change in vivo at 10 mg/kg (oral 10 mg/Kg, 24 hours, read-out: Antihypertensive effects, change (%) in blood pressure, 24 hours later) is -6.3%. Besides, the “Change (%) in heart rate” value (oral 10 mg/Kg) is “+8.9%”.
As to `CCNc1nc(N2CCN(c3nc(N)c4cc(OC)c(OC)cc4n3)CC2)ncc1C(=O)N(CC)CC` [Example 67], the change in vivo at 1 mg/kg runs as follows: under setting [1], -21.4%; under setting [2], -28.6%; under setting [3], -38.4%; under setting [4], -16.7%. For the same compound, under “oral 1 mg/Kg”, the “Change (%) in heart rate” value is reported as “+7.4%”.
Consider `CNC(=O)c1cnc(N2CCN(c3nc(N)c4cc(OC)c(OC)cc4n3)CC2)nc1NC` [Example 68], for which the change in vivo at 1 mg/kg is 1.4% under setting [1], -19.6% under setting [2], -28.2% under setting [3] and -11.5% under setting [4]. The “Change (%) in heart rate” value (oral 1 mg/Kg) was “+5.2%”.
The corresponding values for `CNc1nc(N2CCN(c3nc(N)c4cc(OC)c(OC)cc4n3)CC2)ncc1C(=O)N(C)C` [Example 69] are -12.9%, -22.7%, -24.7%, -4.6% and “+7.4%”.
The corresponding values for `COc1cc2cnc(N3CCN(c4nc(N)c5cc(OC)c(OC)cc5n4)CC3)nc2cc1OC` [Example 71] are 0.5%, -13.4%, -19.1%, -9.6% and “+15.9%”.
The corresponding values for `COc1cc2nc(N3CCN(c4nc(N)c5cc(OC)c(OC)cc5n4)CC3)nc(N)c2cc1OC` [Example 72] are 2.9%, -2%, -2.5%, -2.9% and “+8.6%”.
Consider `COc1cc2nc(N3CCN(c4nc(N(C)C)c5cc(OC)c(OC)cc5n4)CC3)nc(N)c2cc1OC` [Example 73], for which the change in vivo at 1 mg/kg by setting is: under setting [1], -0.5%; under setting [2], 0%; under setting [3], -7%; under setting [4], -8%. Further, the “Change (%) in heart rate” value (oral 1 mg/Kg) is reported as “+4.3%”.
For the compound `CCOc1nccc2nc(N3CCN(c4nc(N)c5cc(OC)c(OC)cc5n4)CC3)ncc12` [Example 74], the change in vivo at 1 mg/kg under setting [1] was -0.5%, the change in vivo at 1 mg/kg under setting [2] was -14.1%, the change in vivo at 1 mg/kg under setting [3] was -23.3% and the change in vivo at 1 mg/kg under setting [4] is -12.1%. Besides, the “Change (%) in heart rate” value (oral 1 mg/Kg) was “+9.0%”.
As for `COc1cc2nc(N3CCN(c4nc(SC)c5c6c(sc5n4)CCCC6C)CC3)nc(N)c2cc1OC` (stereo not shown) [Example 75], the change in vivo at 1 mg/kg under setting [1] was 12.2%, the change in vivo at 1 mg/kg under setting [2] came to 0.5%, the change in vivo at 1 mg/kg under setting [3] was -7.8% and the change in vivo at 1 mg/kg under setting [4] is -3.9%. Moreover, the “Change (%) in heart rate” value (oral 1 mg/Kg) is “+8.2%”.
Regarding `COc1cc2nc(N3CCN(c4ncc5c(n4)N(C)CCN(C)C5=O)CC3)nc(N)c2cc1OC` [Example 76], the change in vivo at 1 mg/kg was 0% under setting [1], -3.8% under setting [2], -7.2% under setting [3] and -9.6% under setting [4]. In addition, the “Change (%) in heart rate” value (oral 1 mg/Kg) is “+2.9%”.
The corresponding values for `CCN(CC)C(=O)c1cnc(N2CCN(c3nc(N)c4cc(OC)c(OC)cc4n3)CC2)nc1NC` [Example 77] are -31%, -32.9%, -36.2%, -13.8% and “+25.1%”.
Consider `CCN(CC)C(=O)c1cnc(N2CCN(c3nc(N)c4cc(OC)c(OC)cc4n3)CC2)nc1NC(C)C` [Example 78], for which the change in vivo at 1 mg/kg is -23.4% under setting [1], -33.7% under setting [2], -50.2% under setting [3] and -18.5% under setting [4]. Also, under “oral 1 mg/Kg”, the “Change (%) in heart rate” value was “+23.7%”.
On to `CCNc1nc(N2CCN(c3nc(N)c4cc(OC)c(OC)cc4n3)CC2)ncc1C(=O)N(C)C` [Example 79], for which the change in vivo at 1 mg/kg reads like this: under setting [1], -27.9%; under setting [2], -33.7%; under setting [3], -45.2%; under setting [4], -21.2%. Also, where the note is “oral 1 mg/Kg”, the “Change (%) in heart rate” value was “+22.3%”.
The corresponding values for `CCCN(CCC)C(=O)c1cnc(N2CCN(c3nc(N)c4cc(OC)c(OC)cc4n3)CC2)nc1NCC` [Example 80] are -13.9%, -26%, -33.2%, -10.1% and “+12.3%”.
For the compound `CCn1ccc2nc(N3CCN(c4nc(N)c5cc(OC)c(OC)c(OC)c5n4)CC3)ncc2c1=O.Cl` [Example 81, 4-Amino-6,7,8-trimethoxy-2-(4-(5,6-dihydro-6-ethyl-5-oxopyrido[4,3-d]pyrimidin-2-yl)piperazino)quinazoline hydrochloride], the change in vivo at 1 mg/kg is, setting by setting: under setting [1], -0.5%; under setting [2], -7.3%; under setting [3], -12.1%; under setting [4], -8.7%. For the same compound, under “oral 1 mg/Kg”, the “Change (%) in heart rate” value is recorded as “+3.8%”.
Turning to `CCn1ccc2nc(N3CCCN(c4nc(N)c5cc(OC)c(OC)cc5n4)CC3)ncc2c1=O` [Example 82, 4-Amino-6,7-dimethoxy-2-(4-(5,6-dihydro-6-ethyl-5-oxopyrido[4,3-d]pyrimidin-2-yl)homopiperazino)quinazoline], the change in vivo at 1 mg/kg is 0.5% under setting [1], -6.9% under setting [2], -8.8% under setting [3] and -6.4% under setting [4]. In addition, the “Change (%) in heart rate” value (oral 1 mg/Kg) was “+5.8%”.
The corresponding values for `COc1cc2nc(N3CCN(c4ncc5c(=O)n(C)[nH]c5n4)CC3)nc(N)c2cc1OC.Cl` [Example 83, 4-Amino-6,7-dimethoxy-2-(4-(2-methyl-3-oxo-2,3-dihydro-1H-pyrazolo[3,4-d]pyrimidine-6-yl)piperazino)quinazoline hydrochloride] are -3.9%, -4.4%, -5.3%, -0.5% and “+5.6%”.
The corresponding values for `CCOC(=O)c1cnc(N2CCN(c3nc(N)c4cc(OC)c(OC)cc4n3)CC2)nc1C(=O)OCC` [Example 84] are 0.5%, 0%, -1.5%, -0.5% and “+2.2%”.
The corresponding values for `CCNC(=O)c1cnc(N2CCN(c3nc(N)c4cc(OC)c(OC)cc4n3)CC2)nc1C(=O)NCC` [Example 85] are -1.5%, -7.3%, -12.2%, -3.9% and “+3.5%”.
In the case of `COc1cc2nc(N3CCN(c4ncc5c(n4)CN(CCN(C)C)C5=O)CC3)nc(N)c2cc1OC` [Example 86], the change in vivo at 1 mg/kg under setting [1] turned out to be 0.5%, the change in vivo at 1 mg/kg under setting [2] amounted to 0%, the change in vivo at 1 mg/kg under setting [3] is -6.4% and the change in vivo at 1 mg/kg under setting [4] is -0.5%. Also, under “oral 1 mg/Kg”, the “Change (%) in heart rate” value is “+7.1%”.
With `COCCN1Cc2nc(N3CCN(c4nc(N)c5cc(OC)c(OC)cc5n4)CC3)ncc2C1=O` [Example 87], the change in vivo at 1 mg/kg is, setting by setting: under setting [2], -15.2%; under setting [3], -21.6%; under setting [4], -2.5%. Also, the “Change (%) in heart rate” value (oral 1 mg/Kg) was “+17.7%”.
As for `COc1cc2nc(N3CCN(c4ncc5c(n4)CN(CCO)C5=O)CC3)nc(N)c2cc1OC` [Example 88], the change in vivo at 1 mg/kg reads like this: under setting [1], 0.5%; under setting [2], -4.4%; under setting [3], -6.9%; under setting [4], -2%. In addition, the “Change (%) in heart rate” value (oral 1 mg/Kg) is recorded as “+5.8%”.
The corresponding values for `COc1cc2nc(N3CCN(c4ncc5c(n4)CN(CCc4ccccc4)C5=O)CC3)nc(N)c2cc1OC` [Example 89] are -2.4%, -13.3%, -13.8%, -2.9% and “+5.8%”.
On to `CCCCCCCN1Cc2nc(N3CCN(c4nc(N)c5cc(OC)c(OC)cc5n4)CC3)ncc2C1=O` [Example 90], for which the change in vivo at 1 mg/kg was 2.3% under setting [1], -6.8% under setting [2], -15.5% under setting [3] and -2.7% under setting [4]. The “Change (%) in heart rate” value (oral 1 mg/Kg) is reported as “+8.7%”.
For `COc1cc2nc(N3CCN(c4ncc5c(n4)CN(C4CCCCC4)C5=O)CC3)nc(N)c2cc1OC` [Example 91], the change in vivo at 1 mg/kg reads like this: under setting [1], -4%; under setting [2], -8%; under setting [3], -12.9%; under setting [4], -2.5%. In addition, where the note is “oral 1 mg/Kg”, the “Change (%) in heart rate” value is “+8.2%”.

Source of the values: US4734418A, “Quinazoline compounds and antihypertensives” (priority 1984, dated 1988).
